Structures are written as SMILES. ≈ marks a conversion by molar mass, not a printed value.

We go through three compounds from PMC8398255, “Synthesis of 3,5-Bis(trifluoromethyl)phenyl-Substituted Pyrazole Derivatives as Potent Growth Inhibitors of Drug-Resistant Bacteria” (Molecules, 2021).

Data set [1] concerns S. aureus ATCC 700699 persisters. Put plainly: Persister viability assay. The format is cell-based, Staphylococcus aureus. The following applies: 32× MIC, 4 h; for activity against persisters: S. aureus ATCC 700699 persisters. As for the experimental part:
(§1) The persister assay was performed following the methodology described previously. Briefly, for persister viability assays, S. aureus ATCC 700699 strain (MRSA) was grown to stationary phase in CAMHB medium by shaking at 200 rpm in a shaking incubator for 24 h at 35 °C. […] After incubation, 400 µL aliquot was washed, serially diluted in PBS, and plated in blood agar plate for viable colony count.

In data set [2] the test system is E. faecalis biofilms (Efs12). The data set can be described thus: Biofilm eradication (MBEC), Calgary Biofilm Device. The format is cell-based. The procedure:
(§2) Minimum biofilm eradication concentration (MBEC) was determined using a Calgary device using the protocol reported elsewhere with some modifications. The Calgary device is a 96-well plate with a lid containing pegs to establish biofilms. Bacteria from an overnight plate culture were suspended to a 0.5 McFarland turbidity, then diluted 1:100 in a CAMHB containing 1% glucose which was inoculated in the 96 wells (150 μL in each well) and incubated at 35 °C for 24 h to establish biofilm on the pegs. The lid was then removed, washed with PBS in a fresh 96 well plate, then transferred to another 96-well plate containing 2-fold serial dilutions of the test compounds dissolved in PBS (150 μL total volume in each well). This plate was called the “challenge plate”. The challenge plate was incubated for an additional 24 h, and the lid was transferred to the next 96-well plate containing fresh CAMHB media with 1% glucose (180 μL) and further incubated for 24 h. […] All the compounds were tested in a minimum of three independent experiments.

For data set [3], the system named is S. aureus ATCC 25923 (Sa23). Put plainly: MIC, microdilution (CLSI). The class given is cell-based. The following applies: Staphylococcus aureus, ATCC25923; Sa23, antibiotic susceptible S. aureus ATCC 25923; n = 3; read-out: MIC. The essentials:
(§3)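 The read-out is the lowest concentration leaving wells free of turbidity visible to the naked eye after 18–20 h incubation at 35 ℃. Test compounds, starting at 32 µg/mL, were diluted two-fold in CAMHB before bacterial culture was added.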
Background: In broth dilution the organism is exposed to a series of concentrations in liquid medium.

Data set [4] relates to S. aureus BAA-2312 (Sa12). The data set can be described thus: MIC, microdilution (CLSI). The format is cell-based. The following applies: Staphylococcus aureus, BAA2312; Sa12, methicillin-resistant S. aureus BAA-2312; n = 3; read-out: MIC. In short, it runs like this:
as §3

Data set [5] has as its system E. faecalis ATCC 51299 (Ef99). The data set can be described thus: MIC, microdilution (CLSI). The format is cell-based. The following applies: Enterococcus faecalis, ATCC 51299 / VRE; Ef99, vancomycin-resistant (VRE) E. faecalis ATCC 51299; n = 3; read-out: MIC. The essentials:
as §3

Data set [6] relates to S. aureus ATCC 700699 (Sa99). The data set can be described thus: MIC, microdilution (CLSI). The format is cell-based. The following applies: Staphylococcus aureus, ATCC700699; Sa99, methicillin-resistant S. aureus ATCC 700699; n = 3; read-out: MIC. The essentials: as §3
Data set [7] deals with E. faecium ATCC 700221 (Ef21). The data set can be described thus: MIC, microdilution (CLSI). The class given is cell-based. The conditions noted are these: Enterococcus faecium, ATCC 700221 / VRE; Ef21, vancomycin-resistant (VRE) E. faecium ATCC 700221; n = 3; read-out: MIC. In short, it runs like this:
as §3

Data set [8] concerns Bacillus subtilis ATCC 6623 (Bs). The data set can be described thus: MIC, microdilution (CLSI). The format is cell-based. The conditions noted are these: ATCC6623; Bs, Bacillus subtilis ATCC 6623; n = 3; read-out: MIC. The essentials:
as §3

Data set [9] relates to S. aureus ATCC 33592 (Sa92). The data set can be described thus: MIC, microdilution (CLSI). The conditions noted are these: Staphylococcus aureus, ATCC33592; Sa92, methicillin-resistant S. aureus ATCC 33592; n = 3; read-out: MIC. The format is cell-based. The essentials:
as §3

For data set [10], the system named is S. aureus ATCC 33591 (Sa91). Put plainly: MIC, microdilution (CLSI). The class given is cell-based. The following applies: Staphylococcus aureus, ATCC33591; Sa91, methicillin-resistant S. aureus ATCC 33591; n = 3; read-out: MIC. In short, it runs like this: as §3
Data set [11] has as its system E. faecalis ATCC 29212 (Ef12). Put plainly: MIC, microdilution (CLSI). The format is cell-based. The conditions noted are these: Enterococcus faecalis, ATCC29212; Ef12, antibiotic susceptible E. faecalis ATCC 29212; n = 3; read-out: MIC. In short, it runs like this: as §3
Data set [12] concerns S. epidermidis ATCC 700296 (Se). The data set can be described thus: MIC, microdilution (CLSI). The class given is cell-based. The following applies: Staphylococcus epidermidis, ATCC700296; Se, S. epidermidis ATCC 700296; n = 3; read-out: MIC. In short, it runs like this:
as §3

Data set [13] is described as follows: Cytotoxicity assay (resazurin). The class given is cell-based. The following applies: human, HEK-293 cells, 24 h treatment, n = 3. The procedure:
The human embryonic kidney cell line (HEK-293) was used to assess the cytotoxicity of the antibiotics as described by us previously. HEK-293 cells were cultured in Dulbecco’s modified eagle’s medium (DMEM) containing 10% Fetal Bovine Serum (FBS) and incubated at 37 °C in the presence of 5% carbon dioxide. HEK-293 cells were cultured in 96-well black plates with 6000 cells per well for the first 24 h followed by treatment with a range of concentrations of antibiotics dissolved in DMSO for the next 24 h. After the second period of incubation, resazurin (40 µL of 0.15 mg/mL) was added to each well and incubated for an additional 4 h. Reduction of resazurin was measured fluorometrically with excitation wavelength at 560 nm and emission at 590 nm using BioTek™ Cytation™5 plate reader. Percentage viability of HEK cells for each range of concentrations was calculated, taking the fluorescence value of the wells treated with DMSO as a reference, using Microsoft® Excel® for Office 365 MSO. IC50 values were computed using the calculated percentage viability values through data processing in Graphpad Prism 7 for Windows, Version 7.04.
In general terms: The colour change of resazurin is a common sign of viable cells or microbes.

Data set [14] concerns MRSA persisters (S. aureus ATCC 700699). The data set can be described thus: Persister Time Kill Assay. The following applies: for decrease of persister cells: 2× MIC, 8 h; for persisters eradicated: within 8 h at all the 4× MIC, 8× MIC and 16× MIC concentrations. The format is cell-based, Staphylococcus aureus. The procedure: as §1
Likewise, for persister time-kill assays, the persister cells were treated at varied concentrations and incubated with shaking. At the start and every 2 h until 8 h, 400 µL samples were washed, serially diluted, and plated on blood agar using the 6 × 6 drop plate method. Plates were incubated for 18–20 h at 35 °C, before the colonies were counted to calculate CFU/mL. All the treatments were performed in triplicates.

Data set [15] relates to S. aureus and E. faecalis biofilms. The data set can be described thus: Biofilm eradication, S. aureus and E. faecalis. The class given is cell-based. The procedure: as §2

The term MIC denotes the least concentration at which growth counts as inhibited. As a reminder, the IC50 is the midpoint of a concentration-inhibition curve. Read a high IC50 as weaker potency in that assay. In the case of `O=C(O)c1ccc(-n2cc(CNc3ccc(Br)cc3)c(-c3cc(C(F)(F)F)cc(C(F)(F)F)c3)n2)cc1` [Compound 11, 4-[3-[3,5-Bis(trifluoromethyl)phenyl]-4-[(4-bromoanilino)methyl]pyrazol-1-yl] benzoic acid], in data set [1], the “reduction of the population of persisters compared to the positive controls” value is 4 log values. In addition, in [1], the “activity against persisters” value is recorded as “very effective”. In data set [2], the MBEC was 4 µg/mL. The MIC was determined as 2 µg/mL (≈ 3.42 µM) in data set [3]; 1 µg/mL (≈ 1.71 µM) in data set [4]; 1 µg/mL (≈ 1.71 µM) in [5]; 2 µg/mL (≈ 3.42 µM) in data set [6]; 1 µg/mL (≈ 1.71 µM) in data set [7]; 1 µg/mL (≈ 1.71 µM) in data set [8]. The MIC in [9] amounted to 1 µg/mL (≈ 1.71 µM); in data set [10], 1 µg/mL (≈ 1.71 µM); in data set [11], 2 µg/mL (≈ 3.42 µM); in data set [12], 2 µg/mL (≈ 3.42 µM). The same compound displayed an IC50 at 24 h in [13] of 7 to 8 µg/mL (≈ 12 to 13.7 µM). Further, the “decrease of persister cells” value in data set [14] is listed as 1 log value. Besides, in data set [14], the persisters eradicated entry is reported as “more than 3 log values”.

On to `O=C(O)c1ccc(-n2cc(CNc3cc(Cl)c(F)c(Cl)c3)c(-c3cc(C(F)(F)F)cc(C(F)(F)F)c3)n2)cc1` [Compound 28, 4-[3-[3,5-Bis(trifluoromethyl)phenyl]-4-[(3,5-dichloro-4-fluoro-anilino)methyl]pyraz-ol-1-yl] benzoic acid], for which the “activity against persisters” value in data set [1] is “very effective”. In addition, the MBEC values in data set [15] is listed as at least 1 µg/mL. In addition, the MBEC in data set [2] stood at 2 µg/mL. The MIC is 1 µg/mL (≈ 1.69 µM) in data set [3]; 1 µg/mL (≈ 1.69 µM) in [4]; 2 µg/mL (≈ 3.38 µM) in [5]; 1 µg/mL (≈ 1.69 µM) in data set [6]; 1 µg/mL (≈ 1.69 µM) in data set [7]; 1 µg/mL (≈ 1.69 µM) in data set [8]. Also, the MIC was determined as 1 µg/mL (≈ 1.69 µM) in [9], 1 µg/mL (≈ 1.69 µM) in data set [10], 2 µg/mL (≈ 3.38 µM) in [11] and 2 µg/mL (≈ 3.38 µM) in [12]. Also, the 50% inhibitory concentration (IC50) at 24 h in data set [13] was in the range of 7 to 8 µg/mL (≈ 11.8 to 13.5 µM).

Consider `O=C(O)c1ccc(-n2cc(CNc3ccc(Br)c(Cl)c3F)c(-c3cc(C(F)(F)F)cc(C(F)(F)F)c3)n2)cc1` [Compound 29, 4-[3-[3,5-Bis(trifluoromethyl)phenyl]-4-[(4-bromo-3-chloro-2-fluoro-anilino)methyl]pyrazol-1-yl] benzoic acid], for which the “reduction of the population of persisters compared to the positive controls” value in data set [1] stood at 4 log values. Also, the “activity against persisters” value in [1] is given as “very effective”. The MBEC values in data set [15] is given as at least 1 µg/mL. For the same compound, in data set [2], the MBEC was determined as 2 µg/mL. In addition, the MIC in data set [3] was 2 µg/mL (≈ 3.14 µM); in data set [4], 1 µg/mL (≈ 1.57 µM); in data set [5] it was 2 µg/mL (≈ 3.14 µM); in [6], 2 µg/mL (≈ 3.14 µM); in data set [7] it was 1 µg/mL (≈ 1.57 µM); in [8], 2 µg/mL (≈ 3.14 µM). The minimal inhibitory concentration (MIC) in data set [9] was 1 µg/mL (≈ 1.57 µM); in [10], 1 µg/mL (≈ 1.57 µM); in data set [11], 2 µg/mL (≈ 3.14 µM); in [12], 2 µg/mL (≈ 3.14 µM). This compound showed a half-maximal inhibitory concentration (IC50) at 24 h in data set [13] of 7 to 8 µg/mL (≈ 11 to 12.6 µM). For the same compound, the “decrease of persister cells” value in data set [14] was around 2 log value. Moreover, in [14], the persisters eradicated entry is on record as “more than 3 log values”.
